Measured values: US20240336697A1, “METHODS OF USING ANTI-CD79B IMMUNOCONJUGATES TO TREAT DIFFUSE LARGE B-CELL LYMPHOMA” (Genentech, Inc., priority 2021, published 2024)
Where a SMILES comes first, the peptide text is derived from it. [ ]: non-standard residue; d: D form. The star is where a group is joined. Dolaproine = CO[C@@H]([C@@H]1CCCN1)[C@@H](C)C(=O)O; Dil = CC[C@H](C)[C@H](NC)[C@@H](CC(=O)O)OC; X1 = C[C@@H](N*)[C@@H](O)c1ccccc1; NMeV = CN[C@H](C(=O)O)C(C)C

Experiments:
CYP3A4 = CYP3A4 (Homo sapiens, UniProt P08684); assay: In vitro metabolism of unconjugated MMAE; assay type: in vitro ADME; conditions: in vitro data
From the text: (§1) Based on a validated physiological-based PK model simulation, strong CYP3A4 inhibitors may increase the exposure (e.g., area under the concentration-time curve) of unconjugated MMAE by ˜50% while acMMAE PK is not affected. Concomitant medications that are strong CYP3A4 inhibitors are considered cautionary as they may potentially lead to adverse reactions, which require close monitoring. […] Concomitant medications that are P-gp inhibitors are considered cautionary as they may potentially lead to adverse reactions, which require close monitoring.

P-glycoprotein (P-gp) = P-glycoprotein (P-gp) (Homo sapiens, UniProt P08183); assay: P-glycoprotein substrate / inhibitor status; assay type: in vitro ADME
From the text: as §1

Chain of CYP3A4 (P08684 whole entry): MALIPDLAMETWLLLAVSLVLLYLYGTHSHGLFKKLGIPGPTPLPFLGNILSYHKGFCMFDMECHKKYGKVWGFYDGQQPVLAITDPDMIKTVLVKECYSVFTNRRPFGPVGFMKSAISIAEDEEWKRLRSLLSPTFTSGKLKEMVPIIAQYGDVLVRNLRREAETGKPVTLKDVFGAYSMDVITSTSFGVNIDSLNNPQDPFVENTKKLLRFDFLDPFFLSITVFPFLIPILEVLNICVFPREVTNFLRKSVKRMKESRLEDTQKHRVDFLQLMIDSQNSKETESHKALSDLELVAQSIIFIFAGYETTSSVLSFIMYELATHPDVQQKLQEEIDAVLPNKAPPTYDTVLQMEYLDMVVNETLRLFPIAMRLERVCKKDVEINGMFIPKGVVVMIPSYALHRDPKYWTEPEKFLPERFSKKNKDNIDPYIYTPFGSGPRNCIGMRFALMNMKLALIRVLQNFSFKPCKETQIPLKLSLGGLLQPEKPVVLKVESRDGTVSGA
Chain of P-glycoprotein (P-gp) (P08183 whole entry): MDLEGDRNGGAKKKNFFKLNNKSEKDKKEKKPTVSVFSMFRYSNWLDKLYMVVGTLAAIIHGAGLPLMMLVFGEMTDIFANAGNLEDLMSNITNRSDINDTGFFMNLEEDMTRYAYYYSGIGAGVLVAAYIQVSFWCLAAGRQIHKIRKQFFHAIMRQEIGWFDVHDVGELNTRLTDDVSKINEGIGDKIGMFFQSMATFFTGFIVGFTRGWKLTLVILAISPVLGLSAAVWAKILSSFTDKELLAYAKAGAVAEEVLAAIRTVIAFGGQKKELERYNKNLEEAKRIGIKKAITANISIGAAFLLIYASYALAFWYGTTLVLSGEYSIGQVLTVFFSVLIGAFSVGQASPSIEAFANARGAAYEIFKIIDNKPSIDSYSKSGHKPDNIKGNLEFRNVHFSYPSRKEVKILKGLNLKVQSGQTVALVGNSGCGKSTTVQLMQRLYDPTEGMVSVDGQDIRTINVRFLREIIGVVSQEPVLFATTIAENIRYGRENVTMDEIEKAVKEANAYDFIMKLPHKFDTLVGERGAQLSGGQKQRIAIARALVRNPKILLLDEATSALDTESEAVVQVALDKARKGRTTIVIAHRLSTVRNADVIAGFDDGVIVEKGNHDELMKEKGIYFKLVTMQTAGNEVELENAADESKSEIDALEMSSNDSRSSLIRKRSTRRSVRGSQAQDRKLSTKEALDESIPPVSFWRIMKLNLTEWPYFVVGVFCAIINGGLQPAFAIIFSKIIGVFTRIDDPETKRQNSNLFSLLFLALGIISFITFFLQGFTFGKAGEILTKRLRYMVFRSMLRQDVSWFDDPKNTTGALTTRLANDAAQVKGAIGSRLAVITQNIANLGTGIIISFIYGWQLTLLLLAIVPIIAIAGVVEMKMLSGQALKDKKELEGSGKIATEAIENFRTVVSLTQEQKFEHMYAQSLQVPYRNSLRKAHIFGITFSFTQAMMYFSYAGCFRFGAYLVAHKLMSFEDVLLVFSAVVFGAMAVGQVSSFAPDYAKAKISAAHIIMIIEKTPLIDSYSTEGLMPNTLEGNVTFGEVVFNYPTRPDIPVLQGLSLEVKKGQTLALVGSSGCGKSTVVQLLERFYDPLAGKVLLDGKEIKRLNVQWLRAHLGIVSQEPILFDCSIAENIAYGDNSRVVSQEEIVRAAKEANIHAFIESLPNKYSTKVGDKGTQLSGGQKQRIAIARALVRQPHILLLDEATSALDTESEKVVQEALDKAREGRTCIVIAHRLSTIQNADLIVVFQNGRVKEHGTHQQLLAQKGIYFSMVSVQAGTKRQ

CC[C@H](C)[C@@H]([C@@H](CC(=O)N1CCC[C@H]1[C@H](OC)[C@@H](C)C(=O)N[C@H](C)[C@@H](O)c1ccccc1)OC)N(C)C(=O)[C@@H](NC(=O)[C@@H](NC)C(C)C)C(C)C [MMAE, monomethylauristatin E] (H-[NMeV]V[Dil][Dolaproine]-X1)
metabolism of unconjugated MMAE by CYP3A4 (CYP3A4): mainly metabolized by CYP3A4 | P-gp inhibitor (P-glycoprotein (P-gp)): not a P-gp inhibitor
